Reference: the PolyMetriX glass transition set
± gives the standard deviation of the reports.

Row | glass transition temperature | Compound
1 | 235.00 °C | *Oc1ccc(N(CC)c2ccc(/C=C(\C#N)C(=O)NC3CCCCC3NC(=O)/C(C#N)=C/c3ccc(N(CC)c4ccc(*)cc4)cc3)cc2)cc1 (repeat unit)
2 | 85.00 °C | *C(=O)OCC(C)(C)CS(=O)(=O)CC(C)(C)COC(=O)N1CC(C)N(*)CC1C (repeat unit)
3 | 232.00 °C | *Oc1ccc(NC(=O)c2cc(C(=O)Nc3ccc(Oc4ccc(C(c5ccc(*)cc5)(C(F)(F)F)C(F)(F)F)cc4)cc3)cc([N+](=O)[O-])c2)cc1 (repeat unit)
4 | 28.00 °C | *OC(F)(F)COC(=O)c1cccc(C(=O)OCC(*)(F)F)c1 (repeat unit)
5 | 65.40 °C | *c1ccc(-c2sc(-c3cc(SCCCCCCCCCCCC)c(*)s3)cc2SCCCCCCCCCCCC)cc1 (repeat unit)
6 | 193.00 °C | *Nc1cc(NC(=O)c2cc(OCCN(C)c3ccc([N+](=O)[O-])cc3)cc(C(*)=O)c2)cc(C(=O)OC2CC(C)CCC2C(C)C)c1 (repeat unit)
7 | 299.00 °C | *c1ccc2c(c1)C(=O)N(c1ccc(C3(c4ccc(N5C(=O)c6ccc(C(*)(C(F)(F)F)C(F)(F)F)cc6C5=O)c(C(C)C)c4)c4ccccc4-c4ccccc43)cc1C(C)C)C2=O (repeat unit)
8 | 262.00 °C | *c1ccc(Oc2ccc(C(=O)c3ccc(C(=O)c4ccc(Oc5ccc(-c6nc(-c7cccc(-c8nc(*)c(-c9ccccc9)[nH]8)c7)[nH]c6-c6ccccc6)cc5)cc4)cc3)cc2)cc1 (repeat unit)
9 | 277.00 °C | *C/C=C/N(/C=C/CC1CC(=O)N(c2ccc(Cc3ccc(N4C(=O)CC(*)C4=O)cc3)cc2)C1=O)c1ccc(/N=N/c2ccc([N+](=O)[O-])cc2)cc1 (repeat unit)
10 | 191.00 °C | *CCC(=O)NCc1c(C)c(C)c(CNC(=O)CCO*)c(C)c1C (repeat unit)
11 | 190.00 °C | *Oc1ccc(C(=O)c2ccc(Oc3ccc(C(c4ccc(*)cc4)(C(F)(F)F)C(F)(F)F)cc3)cc2)c2ccccc12 (repeat unit)
12 | 355.00 °C | *c1ccc2c(c1)C(=O)N(c1ccc(Oc3c(C(C)(C)C)cc(-c4ccc(N5C(=O)c6ccc(C(*)(C(F)(F)F)C(F)(F)F)cc6C5=O)cc4)cc3C(C)(C)C)cc1)C2=O (repeat unit)
13 | 134.00 °C | *CC(OC)C(C)(C(=O)OC)C(*)(C)C(=O)OC (repeat unit)
14 | 328.00 °C | *c1cc(Br)c(Oc2c(Br)cc(N3C(=O)c4ccc(S(=O)(=O)c5ccc6c(c5)C(=O)N(*)C6=O)cc4C3=O)cc2Br)c(Br)c1 (repeat unit)
15 | 62.40 °C | *CCC1C(=O)N(CCCCCCCCCCCCCC)C(=O)C1* (repeat unit)
16 | 79.00 °C | *CCCCCCCCOC(=O)Nc1ccc(Cc2ccc(NC(=O)O*)cc2)cc1 (repeat unit)
17 | 208.00 °C | *Oc1ccc(NCC(=O)c2ccc(Sc3ccc(C(=O)CNc4ccc(*)cc4)cc3)cc2)cc1 (repeat unit)
18 | 246.00 °C | *C(=O)c1ccc2c(c1)C(=O)N(c1ccc(Sc3ccc(N4C(=O)c5ccc(*)cc5C4=O)cn3)nc1)C2=O (repeat unit)
19 | 176.00 °C | *Oc1ccc(OC(=O)c2ccc([Si](C)(C)c3ccc(C(*)=O)cc3)cc2)cc1 (repeat unit)
20 | 134.00 °C | *Cc1ccc(C(C)(C)c2ccc(CN3C(=O)c4ccc(C(c5ccc6c(c5)C(=O)N(*)C6=O)(C(F)(F)F)C(F)(F)F)cc4C3=O)o2)o1 (repeat unit)
21 | 42.00 °C | *CC(*)c1ccc(C(F)(F)C(F)(F)C(F)(F)C(F)(F)C(F)(F)C(F)(F)C(F)(F)F)cc1 (repeat unit)
22 | 199.00 °C | *CC(*)(C)C(=O)OC1CC2CC1C1C3CCC(C3)C21 (repeat unit)
23 | 186.00 °C | *c1ccc(C(=O)Oc2c(C)cc(C(c3cccnc3)c3cc(C)c(OC(=O)c4ccc(N5C(=O)CC(Nc6ccc(Cc7ccc(NC8CC(=O)N(*)C8=O)cc7)cc6)C5=O)cc4)c(C)c3)cc2C)cc1 (repeat unit)
24 | 218.00 °C | *c1ccc(Sc2cc3c(cc2Sc2ccc(N4C(=O)c5ccc(Oc6ccc7c(c6)C(=O)N(*)C7=O)cc5C4=O)cc2)C(=O)N(CCc2ccccc2)C3=O)cc1 (repeat unit)
25 | 54.00 °C | *CCCCCCCCNC(=O)CCCCCCCCC(=O)N* (repeat unit)
26 | 174.00 °C | *Oc1ccc(-c2ccc(-c3ccc(Oc4ccc(C(=O)c5cccc(C(=O)c6ccc(*)cc6)c5)cc4)cc3)cc2)cc1 (repeat unit)

Row | glass transition temperature | Compound
27 | 273.00 °C | *Oc1c(Cl)cc(C(c2cc(Cl)c(OC(*)=O)c(Cl)c2)C(Cl)(Cl)Cl)cc1Cl (repeat unit)
28 | 129.00 °C | *Cc1ccc(C(C)(C)c2ccc(CN3C(=O)c4ccc(-c5ccc6c(c5)C(=O)N(*)C6=O)cc4C3=O)o2)o1 (repeat unit)
29 | 150.00 °C | *c1ccc(Oc2ccc(C(C)(C)c3ccc(Oc4ccc(N5C(=O)CC(=O)N(*)C5=S)cc4)cc3)cc2)cc1 (repeat unit)
30 | 328.00 °C | *C1C(*)C2CC1C(C(=O)OCC13CC4CC(CC(C4)C1)C3)C2C(=O)OCC12CC3CC(CC(C3)C1)C2 (repeat unit)
31 | 288.00 °C | *c1ccc(Oc2ccc(C(c3ccc(Oc4ccc(-c5nnc(*)c6c(-c7ccc(F)cc7)c(-c7ccc(F)cc7)c(-c7ccc(F)cc7)c(-c7ccc(F)cc7)c56)cc4)cc3)(C(F)(F)F)C(F)(F)F)cc2)cc1 (repeat unit)
32 | 116.00 °C | *CC(O)COc1ccc(C(C)(C)c2ccc(OCC(O)COc3ccc(NC(=O)CCCCCC(=O)Nc4ccc(O*)cc4)cc3)cc2)cc1 (repeat unit)
33 | 324.00 °C | *C(=O)c1ccc2c(c1)C(=O)N(c1cc(N3C(=O)c4ccc(*)cc4C3=O)c(O)cc1O)C2=O (repeat unit)
34 | 55.00 °C | *O[Si](C)(C)CC[Si](C)(C)Oc1c(C)cc(-c2cc(C)c(*)c(C)c2)cc1C (repeat unit)
35 | 15.00 °C | *CC(*)C(=O)OCCCCCCCCOC(=O)c1ccc(OC(=O)c2ccc(C#N)cc2)cc1 (repeat unit)
36 | 178.50 °C | *Oc1ccc(C(C)(C)c2ccc(OC(=O)c3ccc(C(*)=O)cc3)c(C)c2)cc1C (repeat unit)
37 | 91.00 °C | *OC(=O)C(CC(C)C)NC(=O)CCCCC(=O)NC(CC(C)C)C(=O)OC1COC2C(*)COC12 (repeat unit)
38 | 132.00 °C | *c1ccc2c(c1)C(=O)N(c1ccc(-c3ccc(N4C(=O)c5ccc(C(*)(C(F)(F)F)C(F)(F)F)cc5C4=O)c(OCCOc4ccc5c(C)cc(=O)oc5c4)c3)cc1OCCOc1ccc3c(C)cc(=O)oc3c1)C2=O (repeat unit)
39 | 226.00 °C | *c1ccc(CC(=O)Nc2ccc(Oc3ccc(NC(=O)Cc4ccc(-c5sc(*)c(-c6ccccc6)c5-c5ccccc5)cc4)cc3)cc2)cc1 (repeat unit)
40 | 313.00 °C | *C(=O)c1ccc2c(c1)C(=O)N(c1ccc(C(=O)N(C)c3ccc(N4C(=O)c5ccc(*)cc5C4=O)cc3)cc1)C2=O (repeat unit)
41 | 96.00 °C | *O[Si](*)(C)CCc1cc(C(=O)Oc2ccc(OCCCC)cc2)ccc1-c1ccc(C(=O)Oc2ccc(OCCCC)cc2)cc1 (repeat unit)
42 | 392.00 °C | *c1ccc(C2(c3ccc(N4C(=O)c5ccc(S(=O)(=O)c6ccc7c(c6)C(=O)N(*)C7=O)cc5C4=O)cc3)c3ccccc3-c3ccccc32)cc1 (repeat unit)
43 | 373.50 ± 15 °C | *c1ccc(-c2ccc(-n3c(=O)c4cc5c(=O)n(*)c(=O)c5cc4c3=O)cc2OC(F)(F)F)c(OC(F)(F)F)c1 (repeat unit)
44 | 180.00 °C | *Oc1ccc(C(CC)(CC)c2ccc(OC(=O)c3ccc(C(*)=O)cc3)cc2)cc1 (repeat unit)
45 | 250.00 °C | *c1ccc(OC(=O)c2ccc([Si](c3ccccc3)(c3ccccc3)c3ccc(C(=O)Oc4ccc(C5(*)OC(=O)c6ccccc65)cc4)cc3)cc2)cc1 (repeat unit)
46 | 102.00 °C | *Oc1ccc(C(C)(CC)c2ccc(OC(*)=S)cc2)cc1 (repeat unit)
47 | 74.00 °C | *c1cccc(S(=O)(=O)NCCCCCNS(*)(=O)=O)c1 (repeat unit)
48 | 305.00 °C | *Nc1ccc(NC(=O)c2ccc(NC(=O)CCCCCCC(=O)Nc3ccc(C(*)=O)cc3)cc2)cc1C(=O)OCCCCCCCCCCCCCCCCCC (repeat unit)
49 | 241.00 °C | *c1ccc(C(=O)Nc2cccc(Oc3ccc(S(=O)(=O)c4ccc(Oc5cccc(NC(=O)c6ccc(N7C(=O)c8ccc(-c9cccc%10c9C(=O)N(*)C%10=O)cc8C7=O)cc6)c5)cc4)cc3)c2)cc1 (repeat unit)
50 | 239.00 °C | *C(=O)c1ccc2c(c1)C(=O)N(c1cccc(C(c3cccc(N4C(=O)c5ccc(*)cc5C4=O)c3)(C(F)(F)F)C(F)(F)F)c1)C2=O (repeat unit)
51 | 238.00 °C | *CCCCCCCCc1nc2ccc(-c3ccc4nc(*)sc4c3)cc2s1 (repeat unit)

Row | Compound | glass transition temperature
52 | *CC(*)c1ccccc1C(F)(F)F (repeat unit) | 165.00 °C
53 | *CC(*)C(=O)NCP(=O)(O)O (repeat unit) | 26.00 °C
54 | *c1cccc(P(=O)(c2ccccc2)c2cccc(N3C(=O)c4ccc(Oc5ccc(C(C)(C)c6ccc(Oc7ccc8c(c7)C(=O)N(*)C8=O)cc6)cc5)cc4C3=O)c2)c1 (repeat unit) | 213.00 °C
55 | *CCCCOC(=O)CCC(=O)O* (repeat unit) | -32.00 °C
56 | *CCCCOC(=O)CCCCC(=O)O* (repeat unit) [Poly(tetramethylene adipate) ] | -68 ± 2.1 °C
57 | *CCCCCOC(=O)c1ccccc1C(=O)[O][Pb][O]C(=O)c1ccccc1C(=O)OCCCCCOC(=O)Nc1ccc(C)c(NC(=O)O*)c1 (repeat unit) | -11.30 °C
58 | *C(=O)OCCOC(=O)c1ccc(*)o1 (repeat unit) | 89.0 °C
59 | *C([2H])([2H])C(*)(C(=O)OC([2H])([2H])[2H])C([2H])([2H])[2H] (repeat unit) | 115.00 °C
60 | *CCN(*)C(=O)C(C)C (repeat unit) | 30.00 °C
61 | *CCNC(=O)CCCCC(=O)N* (repeat unit) | 71.00 °C
